Assay results taken from patent US20040063662A1, “Selenophene anti-tumor agents” (priority 1996, published 2004).

Columns and labels:
K-562 = test: NCI human tumor cell panel: K-562 (Leukemia); format: cell-based
SR = test: NCI human tumor cell panel: SR (Leukemia); format: cell-based
NCI-H322M = test: cells; format: cell-based; conditions: Homo sapiens, read-out: Log10 TGI (converted)
NCI-H460 = test: NCI human tumor cell panel: NCI-H460 (Non-Small Cell Lung Cancer); format: cell-based
COLO 205 = test: NCI human tumor cell panel: COLO 205 (Colon Cancer); format: cell-based
HCC-2998 = test: NCI human tumor cell panel: HCC-2998 (Colon Cancer); format: cell-based
KM12 = test: NCI human tumor cell panel: KM12 (Colon Cancer); format: cell-based
SNB-75 = test: NCI human tumor cell panel: SNB-75 (CNS Cancer); format: cell-based
M14 = test: NCI human tumor cell panel: M14 (Melanoma); format: cell-based
SK-MEL-2 = test: NCI human tumor cell panel: SK-MEL-2 (Melanoma); format: cell-based
SK-MEL-28 = test: NCI human tumor cell panel: SK-MEL-28 (Melanoma); format: cell-based
SK-MEL-5 = test: NCI human tumor cell panel: SK-MEL-5 (Melanoma); format: cell-based
UACC-257 = test: NCI human tumor cell panel: UACC-257 (Melanoma); format: cell-based
IGROV1 = test: NCI human tumor cell panel: IGROV1 (Ovarian Cancer); format: cell-based
OVCAR-5 = test: NCI human tumor cell panel: OVCAR-5 (Ovarian Cancer); format: cell-based; conditions: OVCAR-5, read-out: Log10 GI50 (converted)
SK-OV-3 = test: NCI human tumor cell panel: SK-OV-3 (Ovarian Cancer); format: cell-based
A498 = test: NCI human tumor cell panel: A498 (Renal Cancer); format: cell-based
CAKI-1 = test: NCI human tumor cell panel: CAKI-1 (Renal Cancer); format: cell-based
TK-10 = test: NCI human tumor cell panel: TK-10 (Renal Cancer); format: cell-based
MCF7 = test: NCI human tumor cell panel: MCF7 (Breast Cancer); format: cell-based
MCF7/ADR-RES = test: NCI human tumor cell panel: MCF7/ADR-RES (Breast Cancer); format: cell-based
MDA-MB-231/ATCC = test: NCI human tumor cell panel: MDA-MB-231/ATCC (Breast Cancer); format: cell-based; conditions: Homo sapiens, MDA-MB-231, MDA-MB-231/ATCC
MDA-MB-435 = test: NCI human tumor cell panel: MDA-MB-435 (Breast Cancer); format: cell-based
T-47D = test: NCI human tumor cell panel: T-47D (Breast Cancer); format: cell-based; conditions: T47D
[1] = system: panel of sixty different human tumor cell lines; test: NCI human tumor cell panel: whole panel (mean graph summary)
[2] = read-out: Log10 GI50 (converted)
[3] = read-out: Log10 TGI (converted)

`OCc1ccc(-c2ccc(-c3ccc(CO)[se]3)s2)s1` [compound 688830] showed a GI50 (K-562; K562, K-562, read-out: Log10 GI50 (converted)) of 0.0724 µM, an IC (TGI) (K-562; K562, K-562, read-out: Log10 TGI (converted)) of 17.4 µM and a GI50 (SR; [2]) of 24.5 µM. For the same compound, the IC (TGI) (SR; [3]) was 72.4 µM, the IC (TGI) (NCI-H322M) was 20 µM and the GI50 (NCI-H460; NCI-H460, read-out: Log10 GI50 (converted)) was 0.017 µM. The IC (TGI) (NCI-H460; NCI-H460, read-out: Log10 TGI (converted)) was 0.646 µM, the GI50 (COLO 205; COLO 205, read-out: Log10 GI50 (converted)) was 0.447 µM and the IC (TGI) (COLO 205; COLO 205, read-out: Log10 TGI (converted)) was 5.5 µM. The GI50 (HCC-2998; HCC-2998, read-out: Log10 GI50 (converted)) was 0.0631 µM, the IC (TGI) (HCC-2998; HCC-2998, read-out: Log10 TGI (converted)) was 11.5 µM and the GI50 (KM12; KM12, read-out: Log10 GI50 (converted)) was 47.9 µM. For the same compound, the IC (TGI) (KM12; KM12, read-out: Log10 TGI (converted)) was over 100 µM, the GI50 (SNB-75; SNB-75, read-out: Log10 GI50 (converted)) was 25.7 µM and the IC (TGI) (SNB-75; SNB-75, read-out: Log10 TGI (converted)) was over 100 µM. For the same compound, the GI50 (M14; M14, read-out: Log10 GI50 (converted)) was 37.2 µM, the IC (TGI) (M14; M14, read-out: Log10 TGI (converted)) was over 100 µM and the GI50 (SK-MEL-2; SK-MEL-2, read-out: Log10 GI50 (converted)) was 39.8 µM. It also gave an IC (TGI) (SK-MEL-2; SK-MEL-2, read-out: Log10 TGI (converted)) of over 100 µM, a GI50 (SK-MEL-28; SK-MEL-28, read-out: Log10 GI50 (converted)) of over 100 µM and an IC (TGI) (SK-MEL-28; SK-MEL-28, read-out: Log10 TGI (converted)) of over 100 µM. It also gave a GI50 (SK-MEL-5; SK-MEL-5, read-out: Log10 GI50 (converted)) of 36.3 µM, an IC (TGI) (SK-MEL-5; SK-MEL-5, read-out: Log10 TGI (converted)) of over 100 µM and a GI50 (UACC-257; UACC-257, read-out: Log10 GI50 (converted)) of 0.0166 µM. The IC (TGI) (UACC-257; UACC-257, read-out: Log10 TGI (converted)) was 0.0457 µM, the GI50 (IGROV1; IGROV-1, IGROV1, read-out: Log10 GI50 (converted)) was 0.0141 µM and the IC (TGI) (IGROV1; IGROV-1, IGROV1, read-out: Log10 TGI (converted)) was 0.174 µM. For the same compound, the GI50 (OVCAR-5) was 0.0229 µM, the GI50 (SK-OV-3; SK-OV-3, read-out: Log10 GI50 (converted)) was 3.24 µM and the IC (TGI) (SK-OV-3; SK-OV-3, read-out: Log10 TGI (converted)) was 19.5 µM. It also gave a GI50 (A498; A498, read-out: Log10 GI50 (converted)) of under 0.01 µM, an IC (TGI) (A498; A498, read-out: Log10 TGI (converted)) of 0.0245 µM and a GI50 (CAKI-1; CAKI-1, read-out: Log10 GI50 (converted)) of under 0.01 µM. It also gave an IC (TGI) (CAKI-1; CAKI-1, read-out: Log10 TGI (converted)) of 0.0282 µM, a GI50 (TK-10; TK-10, read-out: Log10 GI50 (converted)) of under 0.01 µM and an IC (TGI) (TK-10; TK-10, read-out: Log10 TGI (converted)) of 0.0372 µM. It also gave a GI50 (MCF7; MCF7, read-out: Log10 GI50 (converted)) of 0.0166 µM, an IC (TGI) (MCF7; MCF7, read-out: Log10 TGI (converted)) of over 100 µM and a GI50 (MCF7/ADR-RES; [2]) of 12.3 µM. For the same compound, the IC (TGI) (MCF7/ADR-RES; [3]) was over 100 µM, the GI50 (MDA-MB-231/ATCC; [2]) was 12.6 µM and the IC (TGI) (MDA-MB-231/ATCC; [3]) was 35.5 µM. It also gave a GI50 (MDA-MB-435; MDA-MB-435, read-out: Log10 GI50 (converted)) of over 100 µM, an IC (TGI) (MDA-MB-435; MDA-MB-435, read-out: Log10 TGI (converted)) of over 100 µM and a GI50 (T-47D; [2]) of 0.288 µM. It also gave an IC (TGI) (T-47D; [3]) of 57.5 µM, a GI50 ([1]; Homo sapiens, read-out: Log10 GI50, MG_MID, mean over the panel (converted)) of 2.29 µM and a CC50 ([1]; Homo sapiens, read-out: Log10 LC50, MG_MID, mean over the panel (converted)) of 69.2 µM. For the same compound, the “Log10 TGI, MG_MID” value ([1]; mean over the panel) was −4.62, the “Log10 TGI, Delta” value ([1]; whole panel) was 2.99 and the “Log10 TGI, Range” value ([1]; whole panel) was 3.61.
